Values joined by “and” are separate entries in the source; they are usually repeats but may differ in a detail not shown here. Equal entries are not always repeated.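 Growth conditions: 96-well plates. Treatment: test compound, 48 hours, 5 concentrations. Analysis: linear interpolation between bracketing concentrations; unreached endpoints set to highest concentration. At the GI50, growth is halved. TGI is the concentration that stops growth completely.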
Tests used:
Assay in all cases: DTP human tumour cell line panel, 48 h
IGROV1 ovarian = system: IGROV1 ovarian
HOP-62 NSCLC = system: HOP-62 NSCLC
NCI-H522 lung = system: NCI-H522 lung
PC-3 prostate = system: PC-3 prostate
ACHN renal = system: ACHN renal
NCI/ADR-RES ovarian = system: NCI/ADR-RES ovarian
HOP-92 NSCLC = system: HOP-92 NSCLC
UACC-62 melanoma = system: UACC-62 melanoma
SF-268 CNS = system: SF-268 CNS
RXF 393 renal = system: RXF 393 renal

## O=C(/C=C/c1ccc(Cl)cc1)c1ccc(Cl)cc1Cl
IGROV1 ovarian
  GI50: 0.987 µM
  TGI: 14.6 µM
HOP-62 NSCLC
  GI50: 10.9 µM
  TGI: 25.1 µM
NCI-H522 lung
  GI50: 8.15 µM
  TGI: 16.8 µM
PC-3 prostate
  GI50: 11.2 µM
  TGI: 31.7 µM
ACHN renal
  GI50: 0.213 µM
  TGI: 10.9 µM
NCI/ADR-RES ovarian
  GI50: 0.331 µM
  TGI: 15.5 µM
HOP-92 NSCLC
  GI50: 9.39 µM
  TGI: 19.4 µM
UACC-62 melanoma
  GI50: 1.28 µM
  TGI: 12.4 µM
SF-268 CNS
  GI50: 10.1 µM
  TGI: 21.8 µM

## FC(F)(F)c1nc(-c2ccccc2Cl)[nH]c1C(F)(F)F
IGROV1 ovarian
  TGI: 8.97 µM
HOP-62 NSCLC
  TGI: 1.35 µM
ACHN renal
  TGI: 2.65 µM
RXF 393 renal
  TGI: 2.69 µM
HOP-92 NSCLC
  TGI: 1.22 µM
UACC-62 melanoma
  TGI: 3.8 µM
SF-268 CNS
  TGI: > 29.5 µM

## C#CCNC(=O)NC(CCCNC(=O)OCc1ccccc1)C(=O)OCc1ccccc1 (stereo not drawn)
IGROV1 ovarian
  TGI: > 100 µM
HOP-62 NSCLC
  TGI: > 100 µM
NCI-H522 lung
  TGI: 62.7 µM
ACHN renal
  TGI: > 100 µM
RXF 393 renal
  TGI: 95.2 µM
HOP-92 NSCLC
  TGI: > 100 µM
UACC-62 melanoma
  TGI: > 100 µM
SF-268 CNS
  TGI: > 100 µM

## COc1ccc2cc1Oc1ccc(cc1)C[C@H]1c3cc(c(OC)cc3CCN1C)Oc1c(OC)c(OC)cc3c1[C@H](C2)N(C)CC3
IGROV1 ovarian
  GI50: 14.5 µM
  TGI: 19.6 µM and 27.8 µM and > 100 µM
HOP-62 NSCLC
  GI50: 15.1 µM
  TGI: 15.1 µM and 34.2 µM
NCI-H522 lung
  GI50: 3.27 µM
  TGI: 14.9 µM and 12.2 µM and > 100 µM
ACHN renal
  TGI: 15.4 µM and 27.2 µM and 40 µM
RXF 393 renal
  GI50: 1.97 µM
  TGI: 12.1 µM and 6.61 µM
HOP-92 NSCLC
  TGI: 11 µM and 26 µM and > 100 µM
SF-268 CNS
  GI50: 12.6 µM
  TGI: 16.5 µM and 25.1 µM and > 100 µM

## CCOc1ccc(NC(=O)CC2Sc3ccccc3NC2=O)cc1 (stereo not drawn)
IGROV1 ovarian
  TGI: > 100 µM
HOP-62 NSCLC
  TGI: > 100 µM
NCI-H522 lung
  TGI: > 100 µM
ACHN renal
  TGI: > 100 µM
UACC-62 melanoma
  TGI: > 100 µM
SF-268 CNS
  TGI: > 100 µM

## O=C(c1cccs1)c1c(C(F)(F)F)n([O-])c2ccccc2[n+]1=O
IGROV1 ovarian
  GI50: 0.0603 µM
  TGI: 2.29 µM
HOP-62 NSCLC
  GI50: 0.376 µM
  TGI: 1.24 µM
NCI-H522 lung
  GI50: 0.125 µM
  TGI: 1.54 µM
PC-3 prostate
  GI50: 0.448 µM
  TGI: 2.24 µM
ACHN renal
  GI50: 0.417 µM
  TGI: 1.09 µM
NCI/ADR-RES ovarian
  GI50: 0.677 µM
  TGI: 1.94 µM
HOP-92 NSCLC
  GI50: 0.99 µM
  TGI: 2.28 µM
UACC-62 melanoma
  GI50: 0.743 µM
  TGI: 1.6 µM
SF-268 CNS
  GI50: 0.395 µM
  TGI: 1.16 µM

## CC(=O)[CH-]C(=O)c1ccccc1.CC(=O)[CH-]C(=O)c1ccccc1.CCCCCCCCCCCCCCCCCC(=O)[O-].CCCCCCCCCCCCCCCCCC(=O)[O-].[Ti+4]
IGROV1 ovarian
  GI50: 34.9 µM
  TGI: > 100 µM
HOP-62 NSCLC
  GI50: 30.7 µM
  TGI: 90.9 µM
NCI-H522 lung
  GI50: 23.1 µM
  TGI: 62.4 µM
RXF 393 renal
  GI50: 19.7 µM
  TGI: 33.9 µM
HOP-92 NSCLC
  GI50: 17 µM
  TGI: 33.9 µM
UACC-62 melanoma
  GI50: 18.7 µM
  TGI: 41.5 µM
SF-268 CNS
  GI50: 21.6 µM
  TGI: 47.6 µM

## COC(=O)C(c1[nH]nc2ccccc12)C(C(=O)OC)c1[nH]nc2ccccc12 (stereo not drawn)
IGROV1 ovarian
  TGI: > 100 µM
HOP-62 NSCLC
  TGI: > 100 µM
ACHN renal
  TGI: > 100 µM
RXF 393 renal
  TGI: 66.3 µM
UACC-62 melanoma
  TGI: > 100 µM
SF-268 CNS
  TGI: > 100 µM

## O=C(C#Cc1c[nH]c(=O)[nH]c1=O)c1ccccc1Cl
IGROV1 ovarian
  TGI: 35 µM
HOP-62 NSCLC
  TGI: > 100 µM
ACHN renal
  TGI: 33.1 µM
RXF 393 renal
  TGI: 14.7 µM
HOP-92 NSCLC
  TGI: 35.4 µM
UACC-62 melanoma
  TGI: 38.6 µM
SF-268 CNS
  TGI: 41.4 µM

## CCOC(=O)C1(CC)CCCCC(=O)N1 (stereo not drawn)
IGROV1 ovarian
  TGI: > 100 µM
HOP-62 NSCLC
  TGI: > 100 µM
ACHN renal
  TGI: > 100 µM
RXF 393 renal
  TGI: > 100 µM
HOP-92 NSCLC
  TGI: > 100 µM
UACC-62 melanoma
  TGI: > 100 µM
SF-268 CNS
  TGI: > 100 µM

Source: PubChem BioAssay (NCI)
